Source: patent US8916584B2 (Vanderbilt University, priority 2010, dated 2014)

These compounds were tested against T1, mGluR4 (Homo sapiens, UniProt Q14833) (assay: mGluR4 potentiation assay (fluorometric plate reader, compound then EC20 agonist); species for the tabulated values not stated). Conditions: EC50 for potentiation of mGluR4; EC20 concentration of agonist.
T1 construct: expressed in transfected cells; host or cells: CHO cells (human mGluR4) or HEK cells (rat mGluR4 with GIRK)
Type: cell-based
Protocol: The disclosed compounds and compositions can be evaluated for their ability to act as a potentiator of metabotropic glutamate receptor activity, in particular mGluR4 activity, by any suitable known methodology known in the art. For example, Chinese Hamster Ovary (CHO) cells transfected with human mGluR4 or HEK cells co-transfected with rat mGluR4 and the G-protein regulated Inwardly Rectifying Potassium channel (GIRK) were plated in clear bottom assay plates for assay in a Hamamatsu FDSS Fluorometric Plate Reader. The cells were loaded with either a Ca2+-sensitive fluorescent dye or the thallium responsive dye and the plates were washed and placed into a suitable kinetic plate reader. For human mGluR4 assays, a fluorescence baseline was established for 3-5 seconds, the disclosed compounds were then added to the cells, and the response in cells was measured. Approximately two and a half minutes later, a concentration of mGluR4 orthosteric agonist (e.g. glutamate or L-AP4) eliciting approximately 20% (EC20) of the maximal agonist response was added to the cells, and the response was measured. Two minutes later, a concentration of mGluR4 agonist (e.g. glutamate or L-AP4) eliciting 80% (EC80) of the maximal agonist response was added to the cells, and the response was measured. For rat mGluR4/GIRK experiments, a baseline was established for approximately five seconds, disclosed compounds were added, and either an EC20 or EC80 concentration of agonist was added approximately two and one half minutes later. Potentiation of the agonist response of mGluR4 by the disclosed compounds was observed as an increase in response to the EC20 concentration of agonist in the presence of compound compared to the response to agonist in the absence of compound. Similarly, antagonism of the agonist response of mGluR4 by the disclosed compounds was observed as a decrease in response to the EC80 concentration of agonist in the presence of compound compared to the response to agonist in the absence of compound.
The above described assay operated in two modes. In the first mode, a range of concentrations of the disclosed compounds are added to cells, followed by a single fixed concentration of agonist. If the compound acts as a potentiatior, an EC50 value for potentiation and a maximum extent of potentiation by the compound at this concentration of agonist is determined by non-linear curve fitting. If the compound acts as a noncompetitive antagonist, an IC50 value is determined by non-linear curve fitting. In the second mode, several fixed concentrations of the disclosed compounds are added to various wells on a plate, followed by a range in concentrations of agonist for each concentration of disclosed compound. The EC50 values for the agonist at each concentration of compound are determined by non-linear curve fitting. A decrease in the EC50 value of the agonist with increasing concentrations of the sample compound (a leftward shift of the agonist concentration-response curve) is an indication of the degree of mGluR4 potentiation at a given concentration of the sample compound. A decrease in the maximal response of the agonist with increasing concentrations of the sample compounds, with or without a rightward shift in agonist potency, is an indication of the degree of noncompetitive antagonism at mGluR4. The second mode also indicates whether the sample compounds also affect the maximum response to mGluR4 to agonists.

T1 sequence (Q14833 33-912): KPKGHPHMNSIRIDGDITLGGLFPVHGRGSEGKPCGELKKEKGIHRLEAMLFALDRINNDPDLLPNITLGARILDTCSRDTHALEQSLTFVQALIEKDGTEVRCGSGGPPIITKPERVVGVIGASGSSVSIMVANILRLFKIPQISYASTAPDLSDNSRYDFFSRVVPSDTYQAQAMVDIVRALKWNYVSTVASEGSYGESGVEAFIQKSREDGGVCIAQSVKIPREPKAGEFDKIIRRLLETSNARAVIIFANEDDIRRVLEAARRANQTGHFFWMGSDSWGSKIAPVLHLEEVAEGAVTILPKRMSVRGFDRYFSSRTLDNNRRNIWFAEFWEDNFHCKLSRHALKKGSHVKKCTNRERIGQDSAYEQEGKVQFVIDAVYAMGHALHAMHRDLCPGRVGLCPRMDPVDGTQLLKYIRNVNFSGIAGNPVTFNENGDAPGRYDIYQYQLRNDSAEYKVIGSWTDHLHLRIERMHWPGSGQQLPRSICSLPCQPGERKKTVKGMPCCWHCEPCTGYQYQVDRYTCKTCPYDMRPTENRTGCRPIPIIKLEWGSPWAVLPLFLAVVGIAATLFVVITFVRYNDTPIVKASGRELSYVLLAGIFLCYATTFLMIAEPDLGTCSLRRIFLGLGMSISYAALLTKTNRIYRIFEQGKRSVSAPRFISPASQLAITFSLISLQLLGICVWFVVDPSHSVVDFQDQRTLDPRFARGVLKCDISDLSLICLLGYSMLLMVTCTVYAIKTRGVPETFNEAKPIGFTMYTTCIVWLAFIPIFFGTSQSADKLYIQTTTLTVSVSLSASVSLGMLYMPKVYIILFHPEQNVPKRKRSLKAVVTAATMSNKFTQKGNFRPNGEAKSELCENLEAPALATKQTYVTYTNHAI

Row | SMILES | EC50 [nM]
1 | Clc1cccc(Nc2noc3cccnc23)c1 [Example 1, N-(3-chlorophenyl)isoxazolo[4,5-b]pyridin-3-amine] | 209
2 | FC(F)Oc1cccc(Nc2noc3cccnc23)c1 [Example 2, N-(3-(difluoromethoxy)phenyl)isoxazolo[4,5-b]pyridin-3-amine] | 364
3 | Fc1ccc(Nc2noc3cccnc23)cc1Cl [Example 3, N-(3-chloro-4-fluorophenyl)isoxazolo[4,5-b]pyridin-3-amine] | 893
4 | Clc1ccc(Nc2noc3cccnc23)cc1Cl [Example 4, N-(3,4-dichlorophenyl)isoxazolo[4,5-b]pyridin-3-amine] | 4610
5 | COc1ccc(Nc2noc3cccnc23)cc1Cl [Example 5, N-(3-chloro-4-methoxyphenyl)isoxazolo[4,5-b]pyridin-3-amine] | 78.8
6 | FC(F)(F)c1cccc(Nc2noc3cccnc23)c1 [Example 6, N-(3-(trifluoromethyl)phenyl)isoxazolo[4,5-b]pyridin-3-amine] | 434
7 | COc1cc(Nc2noc3cccnc23)ccc1Cl [Example 7, N-(4-chloro-3-methoxyphenyl)isoxazolo[4,5-b]pyridin-3-amine] | 2100
8 | COc1ccc(Nc2noc3cccnc23)cc1OC [Example 8, N-(3,4-dimethoxyphenyl)isoxazolo[4,5-b]pyridin-3-amine] | 4340
9 | Fc1cccc(Nc2noc3cccnc23)c1 [Example 9, N-(3-fluorophenyl)isoxazolo[4,5-b]pyridine-3-amine] | 651

Same assay, conditions: EC50 for potentiation of mGluR4; unit inferred, exponent notation

Row | SMILES | EC50 [nM]
10 | O=S(=O)(Cc1ccccc1Cl)n1ccc(Nc2noc3cccnc23)c1 [Example 16, N-(1-((2-chlorobenzyl)sulfonyl)-1H-pyrrol-3-yl)isoxazolo[4,5-b]pyridin-3-amine] | 89.2
11 | c1ccc(Nc2noc3cccnc23)cc1 [Example 17, N-phenylisoxazolo[4,5-b]pyridin-3-amine] | 2030
12 | FC(F)(F)Oc1cccc(Nc2noc3cccnc23)c1 [Example 18, N-(3-(trifluoromethoxy)phenyl)isoxazolo[4,5-b]pyridin-3-amine] | 1170
13 | c1cnc2c(Nc3ccc4c(c3)OCO4)noc2c1 [Example 19, N-(benzo[d][1,3]dioxol-5-yl)isoxazolo[4,5-b]pyridin-3-amine] | 1000
14 | Cc1cc(Nc2noc3cccnc23)ccc1Cl [Example 20, N-(4-chloro-3-methylphenyl)isoxazolo[4,5-b]pyridin-3-amine] | 590
15 | CC(=O)c1cccc(Nc2noc3cccnc23)c1 [Example 22, l-(3-(isoxazolo[4,5-b]pyridin-3-ylamino)phenyl)ethanone] | 3660
16 | Fc1ccc(Nc2noc3cccnc23)cc1F [Example 23, N-(3,4-difluorophenyl)isoxazolo[4,5-b]pyridin-3-amine] | 338
17 | COc1cc(Nc2noc3cccnc23)ccc1F [Example 24, N-(4-fluoro-3-methoxyphenyl)isoxazolo[4,5-b]pyridin-3-amine] | 468
18 | FC(F)C(F)(F)Oc1cccc(Nc2noc3cccnc23)c1 [Example 26] | 4040
19 | Fc1ccc2onc(Nc3cccc(Cl)c3)c2n1 [Example 27, N-(3-chlorophenyl)-5-fluoroisoxazolo[4,5-b]pyridin-3-amine] | 153
20 | Clc1cccc(Nc2noc3ccccc23)c1 [Example 30, N-(3-chlorophenyl)benzo[d]isoxazol-3-amine] | 1140
21 | Fc1cccc(Nc2noc3ccccc23)c1 [Example 31, N-(3-fluorophenyl)benzo[d]isoxazol-3-amine] | 4090
22 | COc1ccc(Nc2noc3ccccc23)cc1Cl [Example 33, N-(3-chloro-4-methoxyphenyl)benzo[d]isoxazol-3-amine] | 7030
